{
  "source": "patent US10980755B2",
  "about": "“LRH-1 modulators” (THE REGENTS OF THE UNIVERSITY OF CALIFORNIA, priority 2015, dated 2021)",
  "key": {"[1]": {"target": "T1, hLRH-1 (Homo sapiens, UniProt O00482)", "T1 construct": "expressed in transfected cells; host or cells: TET-On 3G HepG2 cells; Dox-inducible pTRE 3G vector (Clontech)", "assay": "RT-qPCR of hLRH-1 target gene CYP24A1 in HepG2 / HepG2-hLRH-1 cells", "assay_type": "cell-based"}, "[2]": {"target": "T2, F342W/I416W hLRH-1 (Homo sapiens, UniProt O00482, F342W/I416W)", "T2 construct": "expressed in transfected cells; host or cells: TET-On 3G HepG2 cells; Dox-inducible pTRE 3G vector (Clontech)", "T2 sequence (O00482 whole entry F342W/I416W)": "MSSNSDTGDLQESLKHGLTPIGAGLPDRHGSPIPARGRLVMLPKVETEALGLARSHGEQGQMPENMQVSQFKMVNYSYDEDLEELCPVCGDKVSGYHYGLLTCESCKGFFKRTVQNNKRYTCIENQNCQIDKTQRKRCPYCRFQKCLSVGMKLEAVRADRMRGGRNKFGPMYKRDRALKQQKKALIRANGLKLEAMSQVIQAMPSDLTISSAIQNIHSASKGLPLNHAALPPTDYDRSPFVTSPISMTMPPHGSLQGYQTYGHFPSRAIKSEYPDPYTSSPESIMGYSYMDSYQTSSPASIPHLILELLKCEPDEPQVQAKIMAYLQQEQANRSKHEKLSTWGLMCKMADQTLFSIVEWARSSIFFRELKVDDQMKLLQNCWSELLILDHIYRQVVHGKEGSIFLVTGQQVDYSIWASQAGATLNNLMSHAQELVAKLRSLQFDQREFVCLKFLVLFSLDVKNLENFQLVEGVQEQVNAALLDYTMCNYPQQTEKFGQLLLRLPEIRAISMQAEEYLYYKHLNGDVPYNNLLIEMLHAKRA", "assay": "RT-qPCR of CYP24A1 in HepG2 cells stably expressing the hLRH-1 pocket mutant", "assay_type": "cell-based", "settings": "10 μM, 16 h, low levels of hLRH-1; listed as PME8", "description": "Cell lines and Quantitative Real-time Polymerase Chain Reaction (RT-qPCR) Assay. […] Induction of low or high levels of hLRH-1 was achieved by addition of DMSO or 500 ng/ml Dox, respectively.\nFor RT-qPCR assay, cells (5×10^5) were plated on 24-well plates in 0.5 mL of media. The following day, fresh media was applied with compound or DMSO control. After an overnight treatment or indicated period of time, cells were washed with ice-cold 1×PBS and total RNA was isolated by Trizol (Life Technologies). DNase-treated total RNA was used to generate cDNA using High-Capacity cDNA Reverse Transcription kits (Life Technologies). RT-qPCR was performed with SYBR (Biotool) and data analyzed essentially as described [19]."}, "[3]": {"target": "biotinylated apo hLRH-1 LBD (Homo sapiens, UniProt O00482)", "sequence (O00482 300-539 limits assumed)": "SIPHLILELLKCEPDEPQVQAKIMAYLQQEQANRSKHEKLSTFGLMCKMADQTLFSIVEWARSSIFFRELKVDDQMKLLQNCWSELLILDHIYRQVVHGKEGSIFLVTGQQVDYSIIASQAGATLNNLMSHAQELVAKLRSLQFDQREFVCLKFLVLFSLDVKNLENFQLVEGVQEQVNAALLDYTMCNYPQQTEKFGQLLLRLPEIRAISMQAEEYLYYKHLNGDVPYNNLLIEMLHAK", "assay": "Surface plasmon resonance binding assay", "settings": "SPR, 25° C., titration from 300 μM, 1:1 binding model; listed as PME8", "description": "Surface Plasmon Resonance Assays. Data were collected on a BiaCore T100 instrument. The biotin CAPture kit (GE Healthcare Life Science) was used as directed for chip preparation and immobilization of protein. In brief, the CAP chip was first conditioned with 3×1 min injec-tions of the provided regeneration solution (6 M Guanidine HCL, 0.25 M NaOH). CAP reagent was then captured on flow cells 1 and 2 to a final density of ˜2500 response units using capture buffer (25 mM HEPES, pH 7.4, 150 mM NaCl). Avi-tagged LRH-1 was then directly injected exclusively on to flow cell 2 achieving a final density of ˜1000 response units (capture buffer). […] A titration series for each fragment was generated as a 0.6× dilution series starting from 300 μM. All samples were made to match the running buffer used in the experiment as closely as possible (capture buffer+3% DMSO, +0.05% Tween-20, 250 μM TCEP). Data was collected at 25° C. with a flow rate of 30 μL/min. Data processing included referencing to both the reference flow cell as well as a buffer injection. Equilibrium binding constants were determined by nonlinear regression analysis utilizing a simple 1:1 binding model. Steady state values used to generate dose-responses curve correspond to the response units achieved 20 seconds after injection."}, "[4]": {"test_system": "TBP", "assay": "RT-qPCR of housekeeping gene TBP in HepG2-hLRH-1 cells", "assay_type": "cell-based, human", "settings": "high hLRH-1 (+Dox), 16 h, SR1848 10 μM", "method": "FIG. 9. Effects of select compounds targeting hLRH-1 compared to PME8. Agonists and antagonists were tested in HepG2-hLRH-1 cells expressing high levels (+Dox) of hLRH-1; activating compounds were added for 16 h relative to the DMSO control (black bars) at the following concentrations: RJW100 (10 μM), DLPC (20 μM), PME8 (10 μM) (bolded, this study) as well as the two putative antagonist/repressors, SR1848 (10 μM) and Cpd3 (10 μM); relative levels of the hLRH-1 target, CYP24A1 (left set of bars) and the housekeeping gene, TBP (right set of bars) are shown with all values normalized to GAPDH. Error bars represents SEM and P values=****<0.0001.\nFinally, to ask how PME8 and PME9 compare to other published compounds, we directly compared the activity of all compounds with respect to the ability to activate or repress CYP24A1 expression in HepG2-hLRH-1 cells. For this experiment, assays were carried out under high levels of hLRH-1 (+Dox) to maximize our ability to see any repressive effects of compounds and the ligand concentrations used were based on published effective doses. […] Of the two published antagonist/repressors, only SR1848 decreased CYP24A1 levels. […]\nFor RT-qPCR assay, cells (5×10^5) were plated on 24-well plates in 0.5 mL of media. […] RT-qPCR was performed with SYBR (Biotool) and data analyzed essentially as described. […]"}},
  "note": "Entries after “also recorded” stand apart in the source; their conditions may differ.",
  "data": [
    {"smiles": "CCCNC(=O)c1cc(C(C)(C)C)cc(C(C)(C)C)c1O", "note": "[Compound 8, 3,5-di-tert-butyl-2-hydroxy-N-propylbenzamide]", "values": [
      {"measurement": "CYP24A1 expression after siRNA-mediated knockdown of hLRH-1 (dependence on hLRH-1)", "setting": "[1]; 10 μM, siLRH-1 vs siControl, HepG2-hLRH-1 cells, low hLRH-1 (−Dox), listed as PME8", "value": "precipitous drop in CYP24A1 expression; also recorded: Depends on hLRH-1"},
      {"measurement": "treatment time of maximal activity (CYP24A1 levels)", "setting": "[1]; HepG2-hLRH-1 cells", "value": 16, "unit": "h"},
      {"measurement": "time and dose dependence of CYP24A1 induction", "setting": "[1]; HepG2-hLRH-1 cells, 3-24 h at 10 μM, increasing concentrations for 16 h, −Dox or +Dox, listed as PME8", "value": "time-dependent (FIG. 7A) and dose-dependent"},
      {"measurement": "activity (CYP24A1 transcripts) in cells expressing the pocket mutant versus wild type hLRH-1", "setting": "[2]", "value": "decreased; also recorded: depends on an intact hLRH-1 ligand binding pocket"},
      {"measurement": "binding to the hLRH-1 LBD", "setting": "[3]", "value": "direct binding; also recorded: bind directly"}
    ]},
    {"smiles": "O=c1cc(N2CCN(c3cccc(Cl)c3)CC2)[nH]c(=O)n1C1CCCCC1", "note": "[SR1848, reference compound]", "values": [
      {"measurement": "expression of the housekeeping gene TBP", "setting": "[4]", "value": "substantial repression"},
      {"measurement": "CYP24A1 expression, comparison of published compounds", "setting": "[1]; high hLRH-1 (+Dox), 16 h, RJW100 10 μM, DLPC 20 μM, SR1848 10 μM", "value": "decreased"}
    ]}
  ]
}
